The record followed here is PMC8171317, “Total synthesis, isolation, surfactant properties, and biological evaluation of ananatosides and related macrodilactone-containing rhamnolipids” (Chemical Science, 2021).

Data set [1] in a line: Surface tension and CMC, Fisher tensiometer, du Noüy ring method. Type of data set: physicochemical. The following applies: pH 7.0; synthetic samples. The arrangement: γ CMC (surface tension at CMC): unit not given here. As to the method:
Biosurfactants are molecules that can associate with each other leading to the formation of micelles. They can also interact with surfaces between phases of different polarity such as the air/water or oil/water interface.[77] To gain quantitative insights into the surface-active properties of microbial glycolipids, the surface tensions at CMC (γCMC) of ananatoside A (1) and ananatoside B (2) were measured using a Fisher tensiometer by means of the du Noüy ring method. The CMC, referring to the concentration of surfactant at which micelles start to form, was determined from a plot of surface tension again each concentration. […] Consequently, the surface tension measurements were performed quickly to avoid the precipitation of ananatoside A (1) into the aqueous medium.

A further data set concerns Arabidopsis petiole. The experiment in a line: Extracellular ROS production, luminol chemiluminescence. Format: cell-based, Arabidopsis thaliana. To be noted: 100 μM. As for the experimental part:
The only exception to this general trend was compound 5β. […]
ananatoside A (1) ananatoside B (2)
Figure S8. Extracellular ROS production following treatment of Arabidopsis petiole with […]
ananatoside A (1) or ananatoside B (2). Production of reactive oxygen species (ROS) was measured […]
in Arabidopsis petiole following treatment at 100 µM with ananatoside A (1) and ananatoside B […]
(2). Methanol (0.5%) was used as a control. ROS production was measured using the […]
chemiluminescence of luminol and photon counts were expressed as relative luminescence units […]
(RLUs). Data are mean ± SEM (n = 6). Experiments were realized three times with similar results.
(also on this page, place not known: S 8. ( 1) Luminescence (RLU) Luminescence (RLU)) […]
ranging between 200 µM and 1.56 µM. Triton X-100 was used as a positive hemolysis control.
The plate was then incubated at 37 °C with agitation at 150 rpm for 1 h and centrifuged at 1500 × g for 5 min. The supernatant was transferred in an empty plate and absorbance was measured at 540 nm using a Cytation3 microplate reader (Biotek). HC50 was calculated in comparison with the positive control. The experiment was performed in triplicate and repeated three times.
Plant Material and Growth Conditions. […]
Reactive Oxygen Species (ROS) Production. […] Luminescence (relative light units, RLU) was measured every 4

Data set [2] in a line: Dynamic light scattering (Zetasizer), hydrodynamic diameter of micelles. Type of data set: physicochemical. The following applies: pH 7.0; concentration 80 μM. The text has this:
In parallel to these experiments, we took advantage of dynamic light scattering (DLS) to evaluate the hydrodynamic diameter of biosurfactant micelles formed at concentrations above the CMC (Table 4).[79] DLS considers the intensity of light scattered by spherical particles, which prevents its application for highly polydisperse and non-spherical colloidal systems. […] Once again, due to its hydrophobicity, ananatoside A (1) was too polydisperse for conducting a proper distribution analysis, showing a Z-average value above 800 nm, which meant that the particles were aggregated in water at the tested concentration. Similar results were obtained for ananatoside A (1) when the DLS experiments were conducted in DMSO as the solvent.

Molecules are shown by their SMILES.

In the case of `CCCCCCC[C@@H]1CC(=O)OC[C@H]2O[C@@H](O[C@H](CCCCCCC)CC(=O)O1)[C@H](O)[C@@H](O)[C@@H]2O` [Compound 1, ananatoside A], in data set [1], the “CMC (critical micelle concentration)” value amounted to 43 ± 2 µM and the “γ CMC (surface tension at CMC)” value came out at 37 ± 1. Besides, in the data set with Arabidopsis petiole, the “Extracellular ROS production (perception by plants)” value was “perceived by plants”.
Consider `CCCCCCC[C@H](CC(=O)O)OC(=O)C[C@@H](CCCCCCC)O[C@@H]1O[C@H](CO)[C@@H](O)[C@H](O)[C@H]1O` [Compound 2, ananatoside B], for which the “Z-Average (hydrodynamic diameter of micelles)” value in data set [2] is 99.0 nm. Besides, in data set [1], the “CMC (critical micelle concentration)” value was found to be 63 ± 2 µM and the “γ CMC (surface tension at CMC)” value came out at 28 ± 1. The “Extracellular ROS production (perception by plants)” value in the data set with Arabidopsis petiole is “perceived by plants”.
